Measurements reported in the supplement of paper PMC10307832.

What was measured:
Assay in all cases: relative viability (nuclei count vs DMSO), 5 days (fraction); higher = more cells survive
NCI-H1993 = test system: NCI-H1993
Procedure, shortened: (§1)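 Lung cancer cell lines, seeded in 1536-well plates, were treated the following day by pin tool with a single drug or with five library-drug doses (not always all listed) in √10 steps on top of a fixed anchor-drug dose. Cells were fixed and nuclei stained in one step after 5 days, and nuclei were counted. Relative viability is the nuclei count for treated wells divided by that for vehicle wells, reported as medians of duplicate plates.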

NCI-H2009 = test system: NCI-H2009
Procedure, shortened: as §1

NCI-H2087 = test system: NCI-H2087
Procedure, shortened: as §1

NCI-H2170 = test system: NCI-H2170
Procedure, shortened: as §1

NCI-H2342 = test system: NCI-H2342
Procedure, shortened: as §1

NCI-H2405 = test system: NCI-H2405
Procedure, shortened: as §1

NCI-H522 = test system: NCI-H522
Procedure, shortened: as §1

NCI-H647 = test system: NCI-H647
Procedure, shortened: as §1

NCI-H661 = test system: NCI-H661
Procedure, shortened: as §1

SK-LU-1 = test system: SK-LU-1
Procedure, shortened: as §1

SK-MES-1 = test system: SK-MES-1
Procedure, shortened: as §1

## O=c1cc(N2CCOCC2)oc2c(-c3cccc4c3sc3ccccc34)cccc12 + O=C(c1cc(Cc2n[nH]c(=O)c3ccccc23)ccc1F)N1CCN(C(=O)C2CC2)CC1 [Olaparib] (partner 8 µM)
NCI-H1993; first compound 0.03162 µM
  relative viability: 0.958
NCI-H1993; first compound 0.1 µM
  relative viability: 1.23
NCI-H1993; first compound 0.3162 µM
  relative viability: 1.04
NCI-H1993; first compound 1 µM
  relative viability: 0.984
NCI-H2009; first compound 0.01 µM
  relative viability: 0.718
NCI-H2009; first compound 0.03162 µM
  relative viability: 0.651
NCI-H2009; first compound 0.1 µM
  relative viability: 0.592
NCI-H2009; first compound 0.3162 µM
  relative viability: 0.652
NCI-H2009; first compound 1 µM
  relative viability: 0.673
NCI-H2087; first compound 0.01 µM
  relative viability: 0.544
NCI-H2087; first compound 0.03162 µM
  relative viability: 0.65
NCI-H2087; first compound 0.1 µM
  relative viability: 0.672
NCI-H2087; first compound 0.3162 µM
  relative viability: 0.552
NCI-H2087; first compound 1 µM
  relative viability: 0.587
NCI-H2170; first compound 0.01 µM
  relative viability: 0.673
NCI-H2170; first compound 0.03162 µM
  relative viability: 0.589
NCI-H2170; first compound 0.1 µM
  relative viability: 0.526
NCI-H2170; first compound 0.3162 µM
  relative viability: 0.53
NCI-H2170; first compound 1 µM
  relative viability: 0.598
NCI-H2342; first compound 0.01 µM
  relative viability: 0.418
NCI-H2342; first compound 0.03162 µM
  relative viability: 0.434
NCI-H2342; first compound 0.1 µM
  relative viability: 0.438
NCI-H2342; first compound 0.3162 µM
  relative viability: 0.457
NCI-H2342; first compound 1 µM
  relative viability: 0.428
NCI-H2405; first compound 0.01 µM
  relative viability: 0.952
NCI-H2405; first compound 0.03162 µM
  relative viability: 0.912
NCI-H2405; first compound 0.1 µM
  relative viability: 0.945
NCI-H2405; first compound 0.3162 µM
  relative viability: 0.832
NCI-H2405; first compound 1 µM
  relative viability: 0.93
NCI-H522; first compound 0.01 µM
  relative viability: 0.59
NCI-H522; first compound 0.03162 µM
  relative viability: 0.696
NCI-H522; first compound 0.1 µM
  relative viability: 0.739
NCI-H522; first compound 0.3162 µM
  relative viability: 0.602
NCI-H522; first compound 1 µM
  relative viability: 0.572
NCI-H647; first compound 0.01 µM
  relative viability: 0.538
NCI-H647; first compound 0.03162 µM
  relative viability: 0.682
NCI-H647; first compound 0.1 µM
  relative viability: 0.524
NCI-H647; first compound 0.3162 µM
  relative viability: 0.655
NCI-H647; first compound 1 µM
  relative viability: 0.592
NCI-H661; first compound 0.01 µM
  relative viability: 0.744
NCI-H661; first compound 0.03162 µM
  relative viability: 0.725
NCI-H661; first compound 0.1 µM
  relative viability: 0.709
NCI-H661; first compound 0.3162 µM
  relative viability: 0.732
NCI-H661; first compound 1 µM
  relative viability: 0.721
SK-LU-1; first compound 0.01 µM
  relative viability: 0.434
SK-LU-1; first compound 0.03162 µM
  relative viability: 0.447
SK-LU-1; first compound 0.1 µM
  relative viability: 0.387
SK-LU-1; first compound 0.3162 µM
  relative viability: 0.52
SK-LU-1; first compound 1 µM
  relative viability: 0.51
SK-MES-1; first compound 0.01 µM
  relative viability: 0.68
SK-MES-1; first compound 0.03162 µM
  relative viability: 0.71
SK-MES-1; first compound 0.1 µM
  relative viability: 0.808
SK-MES-1; first compound 0.3162 µM
  relative viability: 0.598
SK-MES-1; first compound 1 µM
  relative viability: 0.634
